Experimental data taken from US20100255001A1, “BLOCKERS OF SEROTONIN AND ITS RECEPTORS FOR THE TREATMENT OF HEPATITIS” (priority 2007, published 2010).

How the values were obtained:
LCMV = format: in vivo, C57BL/6 mice; details: 2×10^4 pfu LCMV, serotonin 5 mg/mouse/day
[1] = Serotonin treatment without infection, effect on liver

NCCc1c[nH]c2ccc(O)cc12 [serotonin]
time of maximum ALT level after infection (LCMV): 10 days | replicating virus in liver (viral titers) (LCMV; eight days after infection, vehicle treated mice cleared LCMV by day 8): high levels of replicating virus | ALT levels in the serum (LCMV; maximum at day 10 after infection): more than 1000 U/I | effect on the liver without infection [1]: harmless to the liver
